Source: patent US4435426A, “Ethers of phenol active on the cardiovascular system, process for preparing same and use thereof in drugs” (Societe Anonyme dite: Sanofi, priority 1981, dated 1984)

Key:
[1] = target: T1, adrenergic β receptors (β2) (Canis lupus familiaris, UniProt P54833); experiment: Antagonism of the effects of isoprenaline: hypertension (so in the source) (β2), anaesthetized dog, intravenous; type: in vivo; conditions: 50% inhibition of hypertension (β2) induced by intravenous isoprenaline, i.v., read-out: ID 50 isoprenaline β2
T1 construct: from tissue; host or cells: whole anaesthetized dog (in vivo, systemic arterial pressure)
T1 sequence (P54833 whole entry): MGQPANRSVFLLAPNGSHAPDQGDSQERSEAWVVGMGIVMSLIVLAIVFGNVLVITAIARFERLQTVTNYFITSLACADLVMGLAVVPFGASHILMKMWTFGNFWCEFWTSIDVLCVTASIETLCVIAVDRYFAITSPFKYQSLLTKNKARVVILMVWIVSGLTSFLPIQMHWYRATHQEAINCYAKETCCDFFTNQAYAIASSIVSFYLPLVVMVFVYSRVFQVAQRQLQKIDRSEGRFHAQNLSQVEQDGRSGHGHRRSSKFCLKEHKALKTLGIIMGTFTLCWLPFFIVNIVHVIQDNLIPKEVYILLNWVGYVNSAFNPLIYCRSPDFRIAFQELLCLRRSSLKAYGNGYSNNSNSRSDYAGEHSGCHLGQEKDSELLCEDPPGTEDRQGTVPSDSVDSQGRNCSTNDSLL
Description: (§1) The dog is anaesthetized with sodium pentobarbital administered intravenously at the dose of 30 mg/kg. A canula placed in the short saphenous vein allows the products to be injected intravenously. The animal is intubed and breathes spontaneously.
(§2) The cardiac frequency and the systemic arterial pressure are studied and the variations of these parameters are observed after intravenous injection of the product to be tested, each product being injected at increasing doses.
(§3) The antagonism of the products vis-a-vis the β stimulant cardiovascular effects of isoprenaline on the adrenergic β receptors was sought. The results are shown in Table below and expressed in ID 50: this is the dose expressed in mg/kg which provokes 50% inhibition of tachycardia (β1) and of hypertension (β2) induced by the isoprenaline administered by intravenous route.

[2] = target: T2, adrenergic β receptors (β1) (Canis lupus familiaris, UniProt P79148); experiment: Antagonism of the effects of isoprenaline: tachycardia (β1), anaesthetized dog, intravenous; type: in vivo; conditions: 50% inhibition of tachycardia (β1) induced by intravenous isoprenaline, i.v., read-out: ID 50 isoprenaline β1
T2 construct: The dog is anaesthetized with sodium pentobarbital; from tissue; host or cells: whole anaesthetized dog (in vivo, heart rate)
T2 sequence (P79148 whole entry): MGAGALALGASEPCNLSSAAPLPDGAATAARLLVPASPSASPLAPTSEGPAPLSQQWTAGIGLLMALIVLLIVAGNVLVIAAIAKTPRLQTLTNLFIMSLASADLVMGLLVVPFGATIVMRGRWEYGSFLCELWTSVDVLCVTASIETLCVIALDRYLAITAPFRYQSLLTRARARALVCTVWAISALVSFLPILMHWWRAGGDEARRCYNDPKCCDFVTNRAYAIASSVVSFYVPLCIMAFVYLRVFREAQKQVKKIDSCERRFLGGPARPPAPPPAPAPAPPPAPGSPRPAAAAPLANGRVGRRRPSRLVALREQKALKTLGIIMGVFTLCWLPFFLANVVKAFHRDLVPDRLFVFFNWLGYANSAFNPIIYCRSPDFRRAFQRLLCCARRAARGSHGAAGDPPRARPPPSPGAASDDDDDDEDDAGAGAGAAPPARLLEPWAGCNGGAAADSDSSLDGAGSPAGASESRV
Description: as §1, §2, §3

Row | Compound | ED50 [1] [mg/kg] | ED50 [2] [mg/kg]
1 | CC(C)(C)NCC(O)COc1cccc2c1C(=O)CCC2 (centres unmarked) [compound 7285, 1-(8-oxo 5,6,7,8-tetrahydro 1-naphthyloxy) 2-hydroxy 3-tertiobutylamino propane] | 0.03 | 
2 | Cc1ccc(OCC(O)CNC(C)(C)C)c2c1CCCC2=O (centres unmarked) [compound 7706] | 0.01 | 0.1
3 | C#CC(C)(C)NCC(O)COc1ccc(C)c2c1C(=O)CCC2 (centres unmarked) [compound 7760] | 0.03 | 0.1
